Laboratory results as given in patent US9493446B2, “Orexin receptor antagonists which are [ortho bi-(hetero-)aryl]-[2-(meta bi-(hetero-)aryl)-pyrrolidin-1-yl]-methanone derivatives” (Actelion Pharmaceuticals Ltd, priority 2012, dated 2016).
Read-outs that look alike come from different tables or passages of the source.

How the values were obtained:
[1] = target: orexin-1 (Homo sapiens (Human), UniProt O43613); assay: Intracellular calcium measurement (FLIPR), CHO cells expressing human orexin-1 receptor, 3 nM orexin-A; type: cell-based; details: read-out: IC50 OX1
Chain of orexin-1 (O43613 whole entry): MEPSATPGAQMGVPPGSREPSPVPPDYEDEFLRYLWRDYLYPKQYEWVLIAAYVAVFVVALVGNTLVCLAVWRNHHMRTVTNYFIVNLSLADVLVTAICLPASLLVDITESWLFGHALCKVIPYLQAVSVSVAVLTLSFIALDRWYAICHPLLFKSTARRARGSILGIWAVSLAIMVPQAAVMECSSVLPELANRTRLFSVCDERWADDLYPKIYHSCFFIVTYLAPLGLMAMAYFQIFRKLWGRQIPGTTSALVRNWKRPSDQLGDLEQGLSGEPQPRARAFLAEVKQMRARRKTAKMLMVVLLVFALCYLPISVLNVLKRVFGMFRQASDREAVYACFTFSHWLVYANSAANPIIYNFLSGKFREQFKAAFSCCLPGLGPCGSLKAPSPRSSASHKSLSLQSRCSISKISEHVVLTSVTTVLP
Procedure, shortened: (§1)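 Fluo-4 AM-loaded CHO cells; antagonist preincubation 120 min, then 3 nM orexin-A (final) in HBSS/0.1% BSA/20 mM HEPES. FLIPR read at 1 s intervals; peak height vs. agonist-plus-vehicle control → IC50.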

[2] = target: human orexin-2 receptor (Homo sapiens (Human), UniProt O43614); assay: Intracellular calcium measurement (FLIPR), CHO cells expressing human orexin-2 receptor, 3 nM orexin-A; type: cell-based; details: read-out: IC50 OX2
Chain of human orexin-2 receptor (O43614 whole entry): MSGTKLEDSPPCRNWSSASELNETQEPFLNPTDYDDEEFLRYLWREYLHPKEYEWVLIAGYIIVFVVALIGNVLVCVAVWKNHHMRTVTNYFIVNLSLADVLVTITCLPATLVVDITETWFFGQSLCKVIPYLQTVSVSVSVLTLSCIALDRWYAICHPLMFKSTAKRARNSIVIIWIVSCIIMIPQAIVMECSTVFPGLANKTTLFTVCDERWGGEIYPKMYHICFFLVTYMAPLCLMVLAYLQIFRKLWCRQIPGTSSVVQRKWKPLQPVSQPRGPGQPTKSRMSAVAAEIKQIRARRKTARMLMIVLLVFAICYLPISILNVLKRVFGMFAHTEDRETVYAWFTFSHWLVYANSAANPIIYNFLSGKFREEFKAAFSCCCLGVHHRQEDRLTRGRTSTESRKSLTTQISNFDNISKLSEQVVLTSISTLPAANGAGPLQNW
Procedure, shortened: as §1

[3] = CHO cells expressing human orexin-1 receptor, FLIPR, 3 nM orexin-A, geometric mean if determined several times
[4] = CHO cells expressing human orexin-2 receptor, FLIPR, 3 nM orexin-A, geometric mean if determined several times

Row | IC50 [1, 3] [nM] | IC50 [2, 4] [nM] | Structure (SMILES) | IC50 [1] [nM] | IC50 [2] [nM]
1 | 400 | 646 | CCCOc1ccccc1-c1nnc([C@@H]2CCCN2C(=O)c2cc(C)ccc2-n2nccn2)[nH]1 [compound 515, (5-Methyl-2-[1,2,3]triazol-2-yl-phenyl)-{(S)-2-[5-(2-propoxy-phenyl)-4H-[1,2,4]triazol-3-yl]-pyrrolidin-1-yl}-methanone] | – | –
2 | 9 | 35 | COc1ccc(-c2ccccc2)c(C(=O)N2CCC[C@H]2c2nc(-c3ccccc3OC(F)(F)F)no2)c1 [compound 152, (4-Methoxy-biphenyl-2-yl)-{(S)-2-[3-(2-trifluoromethoxy-phenyl)-[1,2,4]oxadiazol-5-yl]-pyrrolidin-1-yl}-methanone] | – | –
3 | 306 | 18 | Cc1c(F)cccc1-c1noc([C@@H]2CCCN2C(=O)c2ccccc2-n2nccn2)n1 [compound 244, {(S)-2-[3-(3-Fluoro-2-methyl-phenyl)-[1,2,4]oxadiazol-5-yl]-pyrrolidin-1-yl}-(2-[1,2,3]triazol-2-yl-phenyl)-methanone] | – | –
4 | 852 | 425 | COc1ccccc1-c1noc([C@@H]2CCCN2C(=O)c2ccccc2-n2nccn2)n1 [compound 227, {(S)-2-[3-(2-Methoxy-phenyl)-[1,2,4]oxadiazol-5-yl]-pyrrolidin-1-yl}-(2-[1,2,3]triazol-2-yl-phenyl)-methanone] | – | –
5 | 23 | 15 | COc1ccccc1-c1noc([C@@H]2CCCN2C(=O)c2cc(C)c(C)cc2-n2nccn2)n1 [compound 230, (4,5-Dimethyl-2-[1,2,3]triazol-2-yl-phenyl)-{(S)-2-[3-(2-methoxy-phenyl)-[1,2,4]oxadiazol-5-yl]-pyrrolidin-1-yl}-methanone] | – | –
6 | 5 | 2 | CCOc1ncccc1-c1nc([C@@H]2CCCN2C(=O)c2cc(C)ccc2-n2nccn2)no1 [compound 330, {(S)-2-[5-(2-Ethoxy-pyridin-3-yl)-[1,2,4]oxadiazol-3-yl]-pyrrolidin-1-yl}-(5-methyl-2-[1,2,3]triazol-2-yl-phenyl)-methanone] | – | –
7 | 1570 | 261 | Cc1ccc(-n2nccn2)c(C(=O)N2CCC[C@H]2c2nc(-c3ccnc4[nH]ccc34)no2)c1 [compound 75, (5-Methyl-2-[1,2,3]triazol-2-yl-phenyl)-{(S)-2-[3-(1H-pyrrolo[2,3-b]pyridin-4-yl)-[1,2,4]oxadiazol-5-yl]-pyrrolidin-1-yl}-methanone] | – | –
8 | 1810 | 565 | COc1c(F)cccc1-c1noc([C@@H]2CCCN2C(=O)c2cc(F)cc(C)c2-n2nccn2)n1 [compound 207, {(S)-2-[3-(3-Fluoro-2-methoxy-phenyl)-[1,2,4]oxadiazol-5-yl]-pyrrolidin-1-yl}-(5-fluoro-3-methyl-2-[1,2,3]triazol-2-yl-phenyl)-methanone] | – | –
9 | 21 | 5 | Cc1ccc(-n2nccn2)c(C(=O)N2CCC[C@H]2c2cc(-c3ccccc3OC(F)(F)F)on2)c1 [compound 434, (5-Methyl-2-[1,2,3]triazol-2-yl-phenyl)-{(S)-2-[5-(2-trifluoromethoxy-phenyl)-isoxazol-3-yl]-pyrrolidin-1-yl}-methanone] | – | –
10 | 59 | 29 | O=C(c1ccccc1-n1nccn1)N1CCC[C@H]1c1nc(-c2ccccc2OC(F)(F)F)no1 [compound 141, (2-[1,2,3]Triazol-2-yl-phenyl)-{(S)-2-[3-(2-trifluoromethoxy-phenyl)-[1,2,4]oxadiazol-5-yl]-pyrrolidin-1-yl}-methanone] | – | –
11 | 457 | 341 | O=C(c1cc(OC(F)(F)F)ccc1-n1nccn1)N1CCC[C@H]1c1nc(-c2ccccc2OC(F)(F)F)no1 [compound 150, (2-[1,2,3]Triazol-2-yl-5-trifluoromethoxy-phenyl)-{(S)-2-[3-(2-trifluoromethoxy-phenyl)-[1,2,4]oxadiazol-5-yl]-pyrrolidin-1-yl}-methanone] | – | –
12 | 43 | 20 | CCOc1ccccc1-c1noc([C@@H]2CCCN2C(=O)c2ccc(C)cc2-n2nccn2)n1 [compound 256, {(S)-2-[3-(2-Ethoxy-phenyl)-[1,2,4]oxadiazol-5-yl]-pyrrolidin-1-yl}-(4-methyl-2-[1,2,3]triazol-2-yl-phenyl)-methanone] | – | –
13 | 16 | 7 | CCOc1c(F)cccc1-c1noc([C@@H]2CCCN2C(=O)c2cc(C)ccc2-n2nccn2)n1 [compound 56, {(S)-2-[3-(2-Ethoxy-3-fluoro-phenyl)-[1,2,4]oxadiazol-5-yl]-pyrrolidin-1-yl}-(5-methyl-2-[1,2,3]triazol-2-yl-phenyl)-methanone] | – | –
14 | 26 | 8 | COc1cc(C)cc(-c2nc([C@@H]3CCCN3C(=O)c3cc(OC)c(C)cc3-n3nccn3)no2)c1 [compound 385, {(S)-2-[5-(3-Methoxy-5-methyl-phenyl)-[1,2,4]oxadiazol-3-yl]-pyrrolidin-1-yl}-(5-methoxy-4-methyl-2-[1,2,3]triazol-2-yl-phenyl)-methanone] | – | –
15 | 176 | 112 | Cc1ccc(-n2nccn2)c(C(=O)N2CCC[C@H]2c2nnc(-c3ccccc3OC(F)(F)F)s2)c1 [Example 458, (5-Methyl-2-[1,2,3]triazol-2-yl-phenyl)-{(S)-2-[5-(2-trifluoromethoxy-phenyl)-[1,3,4]thiadiazol-2-yl]-pyrrolidin-1-yl}-methanone] | – | –
16 | 57 | 3 | COc1cc(C(=O)N2CCC[C@H]2c2noc(-c3cc(C)ccc3OC)n2)c(-n2nccn2)cc1C [compound 387, {(S)-2-[5-(2-Methoxy-5-methyl-phenyl)-[1,2,4]oxadiazol-3-yl]-pyrrolidin-1-yl}-(5-methoxy-4-methyl-2-[1,2,3]triazol-2-yl-phenyl)-methanone] | – | –
17 | 316 | 90 | COc1cc(OC)cc(-c2noc([C@@H]3CCCN3C(=O)c3cc(C)ccc3-n3nccn3)n2)c1 [compound 47, {(S)-2-[3-(3,5-Dimethoxy-phenyl)-[1,2,4]oxadiazol-5-yl]-pyrrolidin-1-yl}-(5-methyl-2-[1,2,3]triazol-2-yl-phenyl)-methanone] | – | –
18 | 137 | 90 | COc1ccc(C(=O)N2CCC[C@H]2c2nc(-c3ccccc3OC(F)(F)F)no2)c(-n2nccn2)c1 [compound 169, (4-Methoxy-2-[1,2,3]triazol-2-yl-phenyl)-{(S)-2-[3-(2-trifluoromethoxy-phenyl)-[1,2,4]oxadiazol-5-yl]-pyrrolidin-1-yl}-methanone] | – | –
19 | 523 | 75 | O=C(c1ccccc1-n1nccn1)N1CCC[C@H]1c1nc(-c2ccccc2OC(F)F)no1 [compound 185, {(S)-2-[3-(2-Difluoromethoxy-phenyl)-[1,2,4]oxadiazol-5-yl]-pyrrolidin-1-yl}-(2-[1,2,3]triazol-2-yl-phenyl)-methanone] | – | –

Continued, compound first:

Row | Structure (SMILES) | IC50 [1, 3] [nM] | IC50 [2, 4] [nM] | IC50 [1] [nM] | IC50 [2] [nM]
20 | Cc1ccc(-c2ncco2)c(C(=O)N2CCC[C@H]2c2nc(-c3cccc(Cl)c3C)no2)c1 [compound 131] | – | – | 45 | 8
21 | Cc1ccc(C(=O)N2CCC[C@H]2c2nc(-c3cccc(Cl)c3C)no2)c(-n2nccn2)c1C [compound 129] | – | 287 | 419 | –
22 | Cc1cc(C(=O)N2CCC[C@H]2c2nc(-c3ccccc3Cl)no2)c(-n2nccn2)cc1C [compound 238] | 104 | 16 | – | –
23 | Cc1noc(-c2ccccc2C(=O)N2CCC[C@H]2c2nc(-c3cccc(Cl)c3C)no2)n1 [compound 267] | 501 | 177 | – | –
24 | Cc1c(Cl)cccc1-c1noc([C@@H]2CCCN2C(=O)c2cc(C(F)(F)F)ccc2-n2nccn2)n1 [compound 97] | 568 | 194 | – | –
25 | O=C(c1ccc(Cl)cc1-n1nccn1)N1CCC[C@H]1c1noc(-c2ccccc2OC(F)(F)F)n1 [compound 376] | – | 11 | 23 | –
26 | CCOc1ncccc1-c1nc([C@@H]2CCCN2C(=O)c2cc(OC)c(Cl)cc2-n2nccn2)no1 [compound 370] | 9 | 1 | – | –
27 | Cc1nc(C(=O)N2CCC[C@H]2c2nc(-c3cccc(Cl)c3C)no2)c(-c2ccc(F)cc2)s1 [compound 125] | 353 | 80 | – | –
28 | O=C(c1cccs1)N1CCC[C@H]1c1nc(-c2cccc(Cl)c2)no1 [Ref 2] | 4260 | 7230 | – | –
29 | COc1cc(C(=O)N2CCC[C@H]2c2noc(-c3cccc(Cl)c3OC)n2)c(-n2nccn2)cc1Cl [compound 347] | 15 | 1 | – | –
30 | COc1ccc(C)cc1-c1nc([C@@H]2CCCN2C(=O)c2cc(Cl)ccc2-n2nccn2)no1 [compound 417] | 271 | 21 | – | –
31 | O=C(c1cccc(Cl)c1-n1nccn1)N1CCC[C@H]1c1nc(-c2ccccc2OC(F)(F)F)no1 [compound 298] | 531 | 517 | – | –
32 | COc1ccc(-n2nccn2)c(C(=O)N2CCC[C@H]2c2nc(-c3ccccc3Cl)no2)c1 [compound 240] | 1330 | 147 | – | –
33 | Cc1c(Cl)cccc1-c1nnc([C@]2(C)CCCN2C(=O)c2cc(Cl)ccc2-n2nccn2)[nH]1 [compound 554] | 120 | – | – | 34
34 | Cc1ccc(-n2nccn2)c(C(=O)N2CCC[C@H]2c2nc(-c3c(C)cccc3Cl)no2)c1 [compound 24] | 472 | 104 | – | –
35 | O=C(c1ncsc1-c1cccc(Cl)c1)N1CCC[C@H]1c1nc(-c2ccccc2OC(F)(F)F)no1 [compound 142] | 123 | 80 | – | –
36 | Cc1ccc(-n2nccn2)c(C(=O)N2CCC[C@H]2c2nc(-c3cccnc3OC3CCC3)no2)c1 [compound 48, {(S)-2-[3-(2-Cyclobutoxy-pyridin-3-yl)-[1,2,4]oxadiazol-5-yl]-pyrrolidin-1-yl}-(5-methyl-2-[1,2,3]triazol-2-yl-phenyl)-methanone] | 45 | 58 | – | –
37 | Cc1ccc(-n2nccn2)c(C(=O)N2CCC[C@H]2c2nc(-c3ccccc3Cl)no2)c1 [compound 21] | 339 | 19 | – | –
